Test results as given in patent EP2465581B1, “Non-therapeutic use of a composition for promoting hair growth” (Energenesis Biomedical Co., Ltd., priority 2010, dated 2012).

System: human dermal papilla cells
Test: Human dermal papilla cell proliferation test
Format: cell-based
Details: 0.002% in culture media; cell count at 12-60 hour; FIG. 1; result in words
Description: The promotion of cell proliferation by adenine was evaluated using human dermal papilla cells, compared with adenosine, and minoxidil under the following conditions, the results are shown in FIG. 1. Determination of the proliferation of human dermal papilla cells in the culture media containing adenine, adenosine, and minoxidil. Supplements: 0.002% of adenine, adenosine, minoxidil. • (1) Prepare 0.002% adenine, adenosine, minoxidil containing testing media using the hair follicle dermal papilla cell media (cat. No. 611-500, Cell applications, Inc) . • (2) Seed the isolated human dermal papilla cells in 96-well culture plate with a density of 5,000 cells per well. Add 0.1 mL prepared culture media into individual well. • (3) At 12, 24, 36, 48 and 60 hour after cell seeding, visually count the total cell number using hemacytometer. • (4) Evaluate the result.

With Nc1ncnc2nc[nH]c12 [adenine] the “proliferation of human dermal papilla cells” value was “promotes the proliferation”.
